Assay results reported in patent publication US20070128217A1 (priority 2003, published 2007).

Key:
[1] = test system: antibodies in sera from SARS patients (sera 1a, 1b, 2, 6, 37, 62, London, SARS-yellow, SARS-green); assay type: binding, human; design: Binding of serum 6 to linear peptides of protein X1 of SARS-CoV Urbani / Binding of serum 37 to linear peptides of protein X1 of SARS-CoV Urbani / Binding of serum 6 to looped/cyclic peptide (PEPSCAN-ELISA) / Binding of serum 37 to looped/cyclic peptide (PEPSCAN-ELISA) / Binding of serum 37 to looped/cyclic peptides of protein X1 of SARS-CoV Urbani / Binding of serum 6 to linear peptides of protein X2 / Binding of serum 37 to linear peptides of protein X2 / Binding of serum 37 to looped/cyclic peptides of protein X2 of SARS-CoV Urbani / Binding of serum 6 to linear peptides of protein M of SARS-CoV Urbani / Binding of serum 37 to linear peptides of protein M of SARS-CoV Urbani / Binding of serum 6 to looped/cyclic peptides of protein M of SARS-CoV Urbani / Binding of serum 37 to looped/cyclic peptides of protein M of SARS-CoV Urbani / Binding of serum 6 to linear peptides of protein X3 of SARS-CoV Urbani / Binding of serum 37 to linear peptides of protein X3 of SARS-CoV Urbani / Binding of serum 37 to looped/cyclic peptides of protein X3 of SARS-CoV Urbani / Binding of serum 6 to linear peptides of protein X4 of SARS-CoV Urbani / Binding of serum 37 to linear peptides of protein X4 of SARS-CoV Urbani / Binding of serum 37 to looped/cyclic peptides of protein X4 of SARS-CoV Urbani / Binding of serum 6 to linear peptides of protein X5 of SARS-CoV Urbani / Binding of serum 37 to linear peptides of protein X5 of SARS-CoV Urbani / Binding of serum 37 to looped/cyclic peptides of protein X5 of SARS-CoV Urbani / Binding of serum 6 to linear peptides of protein N of SARS-CoV Urbani / Binding of serum 37 to linear peptides of protein N of SARS-CoV Urbani / Binding of serum 6 to linear peptide (PEPSCAN-ELISA) / Binding of serum 1a to looped/cyclic peptides of protein N of SARS-CoV Urbani / Binding of serum 1b to looped/cyclic peptides of protein N of SARS-CoV Urbani / Binding of serum 2 to looped/cyclic peptides of protein N of SARS-CoV Urbani / Binding of serum 6 to looped/cyclic peptides of protein N of SARS-CoV Urbani / Binding of serum 37 to looped/cyclic peptides of protein N of SARS-CoV Urbani / Binding of serum 62 to looped/cyclic peptides of protein N of SARS-CoV Urbani / Binding of serum London to looped/cyclic peptides of protein N of SARS-CoV Urbani / Binding of serum SARS-green to looped/cyclic peptides of protein N of SARS-CoV Urbani: unit not given here
[2] = test system: control sera (pooled serum of ten healthy LUMC hospital workers; commercial negative donor pooled serum from the Dutch bloodbank); assay type: binding, human; design: Binding of Control serum LUMC to linear peptides / Binding of Control serum Blood-bank to linear peptides / Binding of Control serum LUMC to looped peptides / Binding of Control Serum Blood-Bank to Looped peptides / Binding of Control serum LUMC to linear peptides of the protein M of SARS-CoV Urbani / Binding of Control serum Blood-bank to linear peptides of the protein M of SARS-CoV Urbani / Binding of Control serum LUMC to looped peptides of the protein M of SARS-CoV Urbani / Binding of Control Serum Blood-Bank to Looped peptides of the protein M of SARS-CoV Urbani: unit not given here
[3] = test system: rabbit serum obtained by immunizing a rabbit with the SARS-CoV strain Frankfurt 1; assay type: binding; design: Binding of a rabbit serum to linear peptides / Binding of a rabbit serum to looped peptides / Rabbit serum linear peptides / Rabbit serum looped peptides / Binding of a rabbit serum to linear peptides of protein N of SARS-CoV Urbani (Rabbit serum linear peptides) / Binding of a rabbit serum to looped/cyclic peptides of protein N of SARS-CoV Urbani (Rabbit serum looped peptides): unit not given here
[4] = test system: recombinant human anti-SARS-CoV antibody 03-018; assay type: binding; design: Binding of antibody 03-018 to linear peptides of the N protein of SARS-CoV Urbani / Binding of antibody 03-018 to looped/cyclic peptides of the N protein of SARS-CoV Urbani: unit not given here

Sequence	Binding of serum 1a to linear peptides of protein N of SARS-CoV Urbani [1]	Binding of serum 1a to looped/cyclic peptides of protein N of SARS-CoV Urbani [1]	Binding of serum 1b to linear peptides of protein N of SARS-CoV Urbani [1]	Binding of serum 1b to looped/cyclic peptides of protein N of SARS-CoV Urbani [1]	Binding of serum 2 to linear peptides of protein N of SARS-CoV Urbani [1]	Binding of serum 2 to looped/cyclic peptides of protein N of SARS-CoV Urbani [1]	Binding of serum 6 to linear peptides of protein N of SARS-CoV Urbani [1]	Binding of serum 6 to looped/cyclic peptides of protein N of SARS-CoV Urbani [1]	Binding of serum 37 to linear peptides of protein N of SARS-CoV Urbani [1]	Binding of serum 37 to looped/cyclic peptides of protein N of SARS-CoV Urbani [1]	Binding of serum 62 to linear peptides of protein N of SARS-CoV Urbani [1]	Binding of serum 62 to looped/cyclic peptides of protein N of SARS-CoV Urbani [1]	Binding of serum London to linear peptides of protein N of SARS-CoV Urbani [1]	Binding of serum London to looped/cyclic peptides of protein N of SARS-CoV Urbani [1]	Binding of serum SARS-green to linear peptides of protein N of SARS-CoV Urbani [1]	Binding of serum SARS-green to looped/cyclic peptides of protein N of SARS-CoV Urbani [1]	Binding of serum SARS-yellow to linear peptides of protein N of SARS-CoV Urbani [1]	Binding of serum SARS-yellow to looped/cyclic peptides of protein N of SARS-CoV Urbani [1]	Binding of Control Serum Blood-Bank to Looped peptides [2]	Binding of Control serum Blood-bank to linear peptides [2]	other results
NQRSAPRITFGGPTD	0.2	0.4	0.1	0.3	0.1	0.4	0.1	0.2	0.7	0.6	0.6	0.4	0.5	0.4	0.3	0.5	0.5	0.7	0.6	0.6	Binding of Control serum LUMC to linear peptides [2]: 0.5; Binding of Control serum LUMC to looped peptides [2]: 0.7; Binding of a rabbit serum to linear peptides of protein N of SARS-CoV Urbani (Rabbit serum linear peptides) [3]: 0.3; Binding of a rabbit serum to looped/cyclic peptides of protein N of SARS-CoV Urbani (Rabbit serum looped peptides) [3]: 0.4; Recognition of the peptide by antibody 03-018 [4]: recognized
NSGPDDQIGYYRRAT	0.2	0.5	0.1	0.3	0.1	0.5	0.2	0.3	0.7	1.0	0.6	0.7	0.4	0.5	0.1	0.5	0.5	0.6	0.7	0.7	Binding of Control serum LUMC to linear peptides [2]: 0.7; Binding of Control serum LUMC to looped peptides [2]: 0.8; Binding of a rabbit serum to linear peptides of protein N of SARS-CoV Urbani (Rabbit serum linear peptides) [3]: 0.1; Binding of a rabbit serum to looped/cyclic peptides of protein N of SARS-CoV Urbani (Rabbit serum looped peptides) [3]: 0.5; Binding of antibody 03-018 to linear peptides of the N protein of SARS-CoV Urbani [4]: 0.1; Binding of antibody 03-018 to looped/cyclic peptides of the N protein of SARS-CoV Urbani [4]: 0.2
NTASWFTALTQHGKE	0.2	0.2	0.1	0.2	0.1	0.2	0.1	0.1	0.7	0.4	0.5	0.3	0.4	0.3	0.4	0.3	0.5	0.3	0.5	0.5	Binding of Control serum LUMC to linear peptides [2]: 0.6; Binding of Control serum LUMC to looped peptides [2]: 0.4; Binding of a rabbit serum to linear peptides of protein N of SARS-CoV Urbani (Rabbit serum linear peptides) [3]: 0.1; Binding of a rabbit serum to looped/cyclic peptides of protein N of SARS-CoV Urbani (Rabbit serum looped peptides) [3]: 0.1; Binding of antibody 03-018 to linear peptides of the N protein of SARS-CoV Urbani [4]: 0.1; Binding of antibody 03-018 to looped/cyclic peptides of the N protein of SARS-CoV Urbani [4]: 0.2
NTPKDHIGTRNPNNN	0.3	0.4	0.1	0.3	0.3	0.4	0.2	0.3	0.8	0.6	0.7	0.3	0.4	0.4	0.4	0.4	0.6	0.4	0.5	0.8	Binding of Control serum LUMC to linear peptides [2]: 0.7; Binding of Control serum LUMC to looped peptides [2]: 0.6; Binding of a rabbit serum to linear peptides of protein N of SARS-CoV Urbani (Rabbit serum linear peptides) [3]: 0.1; Binding of a rabbit serum to looped/cyclic peptides of protein N of SARS-CoV Urbani (Rabbit serum looped peptides) [3]: 0.1; Binding of antibody 03-018 to linear peptides of the N protein of SARS-CoV Urbani [4]: 0.1; Binding of antibody 03-018 to looped/cyclic peptides of the N protein of SARS-CoV Urbani [4]: 0.2
